Tests used:
[1] = molecular target: Cholinesterase (Homo sapiens, UniProt P06276); assay: Inhibition of BChE (unknown origin) using butyrylthiocholine chloride as substrate preincubated for 15 min
[2] = molecular target: Acetylcholinesterase (Electrophorus electricus, UniProt O42275); assay: Inhibition of Electrophorus electricus (electric eel) acetylcholinesterase (AChE) using acetylthiocholine iodide as substrate preincubated for 15 min
Chain of Acetylcholinesterase (O42275 whole entry): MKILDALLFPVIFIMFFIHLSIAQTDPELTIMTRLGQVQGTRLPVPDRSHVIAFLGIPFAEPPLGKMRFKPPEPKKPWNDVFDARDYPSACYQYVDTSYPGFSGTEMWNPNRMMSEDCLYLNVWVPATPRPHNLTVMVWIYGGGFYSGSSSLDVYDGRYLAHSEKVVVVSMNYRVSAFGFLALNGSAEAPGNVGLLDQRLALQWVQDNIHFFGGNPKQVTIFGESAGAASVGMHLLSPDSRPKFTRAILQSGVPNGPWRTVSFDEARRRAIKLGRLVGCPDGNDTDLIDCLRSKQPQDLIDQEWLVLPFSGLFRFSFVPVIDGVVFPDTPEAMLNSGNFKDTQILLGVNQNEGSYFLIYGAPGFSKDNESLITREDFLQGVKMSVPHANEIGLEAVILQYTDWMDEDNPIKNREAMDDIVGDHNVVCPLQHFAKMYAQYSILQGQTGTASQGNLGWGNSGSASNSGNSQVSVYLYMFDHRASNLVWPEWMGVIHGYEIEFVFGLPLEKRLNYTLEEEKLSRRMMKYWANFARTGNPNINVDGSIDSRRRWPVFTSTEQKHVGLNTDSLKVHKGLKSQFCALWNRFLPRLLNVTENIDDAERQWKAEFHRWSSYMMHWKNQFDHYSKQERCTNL

Chain of Cholinesterase (P06276 whole entry): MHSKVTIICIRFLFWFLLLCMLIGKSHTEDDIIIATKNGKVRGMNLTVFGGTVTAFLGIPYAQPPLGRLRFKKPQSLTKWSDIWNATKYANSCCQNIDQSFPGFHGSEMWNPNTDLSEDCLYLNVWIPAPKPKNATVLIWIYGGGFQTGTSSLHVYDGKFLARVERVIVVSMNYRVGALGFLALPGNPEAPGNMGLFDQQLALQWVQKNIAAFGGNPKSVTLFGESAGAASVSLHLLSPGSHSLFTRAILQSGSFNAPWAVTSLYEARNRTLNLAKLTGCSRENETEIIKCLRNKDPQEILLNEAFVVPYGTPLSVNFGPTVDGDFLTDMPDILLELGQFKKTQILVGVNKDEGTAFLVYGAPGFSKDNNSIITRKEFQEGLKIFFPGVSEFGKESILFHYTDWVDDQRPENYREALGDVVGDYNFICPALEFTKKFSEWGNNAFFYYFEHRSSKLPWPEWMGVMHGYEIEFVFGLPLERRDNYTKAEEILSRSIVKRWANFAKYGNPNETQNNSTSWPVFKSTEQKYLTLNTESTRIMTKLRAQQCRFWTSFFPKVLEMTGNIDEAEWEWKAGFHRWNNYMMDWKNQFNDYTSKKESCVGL

| SMILES | IC50 [1] | IC50 [2] | IC50 ([1]; read-out: IC50) [µM] | IC50 ([2]; read-out: IC50) [µM] |
| --- | --- | --- | --- | --- |
| Oc1ccccc1C1=Nc2ccccc2SC(c2ccccc2)C1 (configuration not stated) | Not Active | Not Active | – | – |
| CN(C)c1ccc(C2CC(c3cccc(O)c3)=Nc3ccccc3S2)cc1 (configuration not stated) | – | Not Active | – | – |
| COc1ccc(C2CC(c3ccccc3)=Nc3ccccc3S2)cc1OC (configuration not stated) | Not Active | Not Active | – | – |
| COc1ccc(C2CC(c3cccc(O)c3)=Nc3ccccc3S2)cc1OC (configuration not stated) | – | Not Active | – | – |
| O=[N+]([O-])c1ccc(C2CC(c3ccccc3)=Nc3ccccc3S2)cc1 (configuration not stated) | – | – | 60 | 102 |
| COc1cc(C2CC(c3cccc(O)c3)=Nc3ccccc3S2)ccc1O (configuration not stated) | Not Active | Not Active | – | – |
| Oc1cccc(C2=Nc3ccccc3SC(c3ccccc3F)C2)c1 (configuration not stated) | Not Active | – | – | 70.6 |
| Oc1cccc(C2=Nc3ccccc3SC(c3ccccc3Cl)C2)c1 (configuration not stated) | Not Active | Not Active | – | – |
| COc1ccc(C2CC(c3ccccc3O)=Nc3ccccc3S2)cc1 (configuration not stated) | Not Active | Not Active | – | – |
| COc1cccc(C2CC(c3ccccc3O)=Nc3ccccc3S2)c1 (configuration not stated) | Not Active | Not Active | – | – |
| Oc1cccc(C2=Nc3ccccc3SC(c3ccccc3)C2)c1 (configuration not stated) | – | – | 142 | 40 |
| Oc1cccc(C2=Nc3ccccc3SC(c3cccc(Cl)c3)C2)c1 (configuration not stated) | – | Not Active | – | – |
| Cc1ccc(C2CC(c3ccccc3)=Nc3ccccc3S2)cc1 (configuration not stated) | Not Active | Not Active | – | – |
| Oc1ccccc1C1=Nc2ccccc2SC(c2ccc3c(c2)OCO3)C1 (configuration not stated) | Not Active | Not Active | – | – |
| Oc1ccccc1C1=Nc2ccccc2SC(c2ccc(F)cc2)C1 (configuration not stated) | Not Active | Not Active | – | – |
| Oc1cccc(C2=Nc3ccccc3SC(c3ccc(Cl)cc3)C2)c1 (configuration not stated) | – | – | 76.9 | 18.8 |
| c1ccc(C2=Nc3ccccc3SC(c3ccccc3)C2)cc1 (configuration not stated) | Not Active | Not Active | – | – |
| Oc1cccc(C2=Nc3ccccc3SC(c3cccnc3)C2)c1 (configuration not stated) | Not Active | Not Active | – | – |
| O=[N+]([O-])c1cccc(C2CC(c3cccc(O)c3)=Nc3ccccc3S2)c1 (configuration not stated) | Not Active | Not Active | – | – |
| Cc1ccc(C2CC(c3cccc(O)c3)=Nc3ccccc3S2)cc1 (configuration not stated) | – | – | – | 49.8 |
| COc1ccccc1C1CC(c2cccc(O)c2)=Nc2ccccc2S1 (configuration not stated) | – | Not Active | – | – |
| Oc1ccc(C2CC(c3cccc(O)c3)=Nc3ccccc3S2)cc1 (configuration not stated) | Not Active | Not Active | – | – |
| Oc1ccccc1C1=Nc2ccccc2SC(c2ccc(Cl)cc2)C1 (configuration not stated) | Not Active | Not Active | – | – |
| Oc1cccc(C2=Nc3ccccc3SC(c3cccc(O)c3)C2)c1 (configuration not stated) | – | – | – | 71.1 |
| Oc1cccc(C2=Nc3ccccc3SC(c3cccs3)C2)c1 (configuration not stated) | – | – | – | 5.9 |
| O=[N+]([O-])c1ccc(C2CC(c3cccc(O)c3)=Nc3ccccc3S2)cc1 (configuration not stated) | Not Active | Not Active | – | – |
| Cc1ccc(C2CC(c3ccccc3O)=Nc3ccccc3S2)cc1 (configuration not stated) | Not Active | Not Active | – | – |
